Assay results: publication PMC6761512, “Trypanosoma cruzi Phosphomannomutase and Guanosine Diphosphate-Mannose Pyrophosphorylase Ligandability Assessment” (Antimicrobial Agents and Chemotherapy, 2019)

How the values were obtained:
T. cruzi GDP-MP enzyme = test: Km determination with the GDP-MP assay; assay type: biochemical
Method: (§1) All enzyme and substrate solution dilutions were prepared in assay buffer comprising 25 mM Tris-HCl (pH 7.5), 150 mM NaCl, 4 mM MgCl2, 0.01% (vol/vol) Tween 20, and 1 mM dithiothreitol in ultrapure water. Biochemical assays were performed in a 50-μl final assay volume using clear 384-well assay microplates (Greiner, catalog no. 781101) at room temperature. Unless stated otherwise, all reagent concentrations are written as final biochemical assay concentrations, and DMSO or compounds were added to assay plates using Echo acoustic dispensers (Labcyte). Reagent addition for high-throughput screening assays was performed using an Xrd-384 liquid dispenser (FluidX, UK) and a BioFill Solo/Xrd-384 16 channel resin nozzle (2.00 to 200 μl) tubing cartridge (FluidX, catalog no. 34-1005-S). Biochemical reactions were terminated by addition of 50 μl of BIOMOL Green (Enzo Life Sciences, catalog no. BML-AK111-1000) reagent, after which absorbance was measured following a 30-min incubation at room temperature. Absorbance measurements were performed at 650 nm using a PHERAStar microplate reader (BMG Labtech, Germany), and the data are represented as relative absorbance units (RAU). Linear and nonlinear regression was performed using the SigmaPlot 12.5 software, unless stated otherwise.
To calculate the Michaelis constant (Km) for the M-1-P substrate, 20-min time course reactions using a fixed concentration of GDP-MP enzyme (3.13 nM), a saturating concentration of GTP substrate (600 μM) mixed with inorganic pyrophosphatase (1 U/ml; Merck, catalogue no. I5907-1MG), and various concentrations of M-1-P substrate (150, 75, 37.5, 18.8, 9.38, 4.69, and 2.34 μM) were performed. The Km for the GTP substrate was acquired in a similar manner using a saturating concentration of M-1-P (150 μM) and various concentrations of GTP substrate (300, 150, 75, 37.5, 18.8, 9.38, and 4.69 μM). In both cases, background control samples were also included that lacked the presence of GDP-MP enzyme. At the end of the time courses, the biochemical reactions were terminated, and absorbance measurements were taken. […]

[1] = target: T1, T. cruzi PMM and GDP-MP enzymes (Trypanosoma cruzi, UniProt Q4CMK4); test: standard configuration PMM-GDP-MP biochemical assay; settings: for pIC50: library stock material, mean n=2; for pIC50 ± SD: repurchased material, n=3
T1 sequence (Q4CMK4 entry or part of it): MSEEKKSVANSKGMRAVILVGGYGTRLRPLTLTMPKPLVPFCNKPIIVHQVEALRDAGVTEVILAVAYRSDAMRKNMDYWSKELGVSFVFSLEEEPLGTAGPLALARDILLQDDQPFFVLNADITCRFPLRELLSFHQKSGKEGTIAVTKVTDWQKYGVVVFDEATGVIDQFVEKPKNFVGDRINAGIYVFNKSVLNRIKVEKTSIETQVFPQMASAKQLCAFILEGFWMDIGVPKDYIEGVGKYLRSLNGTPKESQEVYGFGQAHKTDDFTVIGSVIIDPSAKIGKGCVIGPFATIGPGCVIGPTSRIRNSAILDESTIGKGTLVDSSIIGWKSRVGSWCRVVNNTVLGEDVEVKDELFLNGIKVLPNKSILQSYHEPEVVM
T1 sequence (Q4E4A3 entry or part of it, further chain): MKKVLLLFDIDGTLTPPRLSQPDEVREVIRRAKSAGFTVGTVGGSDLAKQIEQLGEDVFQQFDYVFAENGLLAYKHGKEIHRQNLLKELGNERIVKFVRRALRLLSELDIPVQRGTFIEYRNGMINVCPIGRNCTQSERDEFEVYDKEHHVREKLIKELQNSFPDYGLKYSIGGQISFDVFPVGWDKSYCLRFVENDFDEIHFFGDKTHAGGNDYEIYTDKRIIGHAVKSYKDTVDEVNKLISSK
Method: as §1
Single-point diversity screening was performed using the standard configuration PMM-GDP-MP biochemical assay and microplates containing compounds in columns 1 to 22 from two diverse small-molecule compound sets covering traditional small-molecule chemical space (DDD, 9,257 compounds; molecular weights between 185.2 and 492.2) and more three-dimensional chemical space (GHCDL, 8,860 compounds; molecular weights between 190.24 and 449.3) at a final concentration of 10 μM (final DMSO concentration = 0.1% [vol/vol]) or a small polar set (16,845 primarily fragment-sized compounds with increased polarity; molecular weights between 88.1 and 476.0) at a final concentration of 300 μM (final DMSO concentration = 0.3% [vol/vol]). Columns 23 and 24 both contained DMSO (either 0.1 or 0.3% [vol/vol] at final assay concentration) and were utilized as “maximum effect” and “minimum effect” control populations, respectively. For screening purposes, 25 μl of a solution containing PMM and GDP-MP enzymes (6.25 and 3.13 nM, respectively) was added to columns 1 to 23, and 25 μl of buffer only was added to column 24. This was followed by the addition of 25 μl of a mixture containing inorganic pyrophosphatase (1 U/ml) and substrates/cofactors (150 μM GTP, 45 μM M-6-P, and 6 μM G-1,6,-BP). The assay plates were incubated at room temperature for 90 min. At the end of the incubation period, the biochemical reactions were terminated, and absorbance measurements were taken. Robust Z′ values were calculated for each assay microplate using the following equation: Robust Z’=1 –((3 ×(1.483 ×(RAU MAD Max)))+(3 ×(1.483 ×(RAU MAD Min))))/(median RAU Max− median RAU Min) where MAD is the median absolute deviation, Max are the maximum effect control samples, and Min are the minimum effect control samples.
RAU values were normalized to percent inhibition values relative to the maximum and minimum effect control populations, and compounds displaying percent inhibition values of ≥30% were selected as hits. Data were processed using IDBS ActivityBase 8.1.2.12 and Dotmatics Limited Vortex v2017.08.69598-59-s software.
Concentration-response assessment of hits using the PMM-GDP-MP assays was performed by adding 25 μl of a solution of PMM and GDP-MP enzymes (6.25 and 3.13 nM, respectively) to columns 1 to 11 and 13 to 23 of microplates containing various concentrations of compounds (10 final assay concentrations ranging from […] at 1 in 3 dilution increments in the presence of 1% [vol/vol] DMSO). Buffer only (25 μl) was added to columns 12 and 24. […]

T. cruzi GDP-MP [2] = target: T2, T. cruzi GDP-MP (Trypanosoma cruzi, UniProt Q4CMK4); test: standard configuration GDP-MP biochemical assay
T2 sequence (Q4CMK4 entry or part of it): as the sequence (Q4CMK4 entry or part of it) above
Method: as §1
Concentration-response assessment of hits using the PMM-GDP-MP assays was performed by adding 25 μl of a solution of PMM and GDP-MP enzymes (6.25 and 3.13 nM, respectively) to columns 1 to 11 and 13 to 23 of microplates containing various concentrations of compounds (10 final assay concentrations ranging from […] at 1 in 3 dilution increments in the presence of 1% [vol/vol] DMSO). Buffer only (25 μl) was added to columns 12 and 24. Columns 11 and 23 were utilized as “maximum effect” control populations (1% [vol/vol] DMSO with enzyme), and columns 12 and 24 were “minimum effect” control populations (1% [vol/vol] DMSO in the absence of enzyme). This was followed by the addition of 25 μl of a mixture containing inorganic pyrophosphatase (1 U/ml) and substrates/cofactors (150 μM GTP, 45 μM M-6-P, and 6 μM G-1,6-BP for the standard configuration assay and 150 μM GTP, 225 μM M-6-P, and 30 μM G-1,6-BP for the high-substrate configuration assay) to the entire assay plate. The standard configuration assay plates were incubated at room temperature for 90 min, and the high-substrate configuration assay plates were incubated for 80 min. Standard and high-substrate configuration GDP-MP assay compound concentration-response assessments were performed as described above by incubating GDP-MP enzyme (3.13 or 0.78 nM) in the presence of GTP (30 or 300 μM), M-1-P (15 or 150 μM), and inorganic pyrophosphatase (1 U/ml) for 50 min at room temperature. Pyrophosphatase counterscreen concentration-response assessments were performed by preincubating compounds with inorganic pyrophosphatase (1 U/ml) for 90 min at room temperature, followed by the addition of inorganic pyrophosphate (10 μM) and a secondary 5-min incubation at room temperature. At the end of the incubation periods, the biochemical reactions were terminated and absorbance measurements were taken. RAU values were normalized to % inhibition values relative to the maximum and minimum effect control populations. pIC50 values, defined as –log[IC50(M)], were calculated by fitting concentration-response data for each independent replicate separately to a four-parameter logistic model, as shown below, using either the IDBS ActivityBase 8.1.2.12 or SigmaPlot 12.5 software. Where appropriate, the top curve plateau parameter was constrained to a value of 100.
The four-parameter logistic model was as follows, where Min is the minimum asymptote and Max is the maximum asymptote: y=Min+Max – Min/1+(10^−logIC50/x)^Hill slope

[3] = target: T1, T. cruzi PMM and GDP-MP enzymes; test: high-substrate configuration PMM-GDP-MP biochemical assay; settings: repurchased material, n=3
Method: as §1, with “otherwise. […]” for “otherwise.”

T. cruzi GDP-MP [4] = target: T2, T. cruzi GDP-MP; test: high-substrate configuration GDP-MP biochemical assay; settings: for IC50: GDP-MP, high-substrate configuration, repurchased material, n=3; for mode of inhibition of GDP-MP: from comparison of standard and high-substrate (10-fold) configuration GDP-MP assays
Method: as §1
Concentration-response assessment of hits using the PMM-GDP-MP assays was performed by adding 25 μl of a solution of PMM and GDP-MP enzymes (6.25 and 3.13 nM, respectively) to columns 1 to 11 and 13 to 23 of microplates containing various concentrations of compounds (10 final assay concentrations ranging from 990 to 1.92 μM at 1 in 3 dilution increments in the presence of 1% [vol/vol] DMSO). Buffer only (25 μl) was added to columns 12 and 24. Columns 11 and 23 were utilized as “maximum effect” control populations (1% [vol/vol] DMSO with enzyme), and columns 12 and 24 were “minimum effect” control populations (1% [vol/vol] DMSO in the absence of enzyme). This was followed by the addition of 25 μl of a mixture containing inorganic pyrophosphatase (1 U/ml) and substrates/cofactors (150 μM GTP, 45 μM M-6-P, and 6 μM G-1,6-BP for the standard configuration assay and 150 μM GTP, 225 μM M-6-P, and 30 μM G-1,6-BP for the high-substrate configuration assay) to the entire assay plate. […] At the end of the incubation periods, the biochemical reactions were terminated and absorbance measurements were taken. RAU values were normalized to % inhibition values relative to the maximum and minimum effect control populations. pIC50 values, defined as –log[IC50(M)], were calculated by fitting concentration-response data for each independent replicate separately to a four-parameter logistic model, as shown below, using either the IDBS ActivityBase 8.1.2.12 or SigmaPlot 12.5 software. […]

[5] = library stock material, n=1, read-out: pIC50 (converted)
[6] = repurchased material, n=3, read-out: pIC50 ± SD (converted)

SMILES	pIC50 [1]	IC50 (T. cruzi GDP-MP [2]; [5]) [µM]	pIC50 ± SD [1]	pIC50 ± SD [3]	IC50 (T. cruzi GDP-MP [2]; [6]) [µM]	IC50 (T. cruzi GDP-MP [4]) [µM]	mode of inhibition of GDP-MP (T. cruzi GDP-MP [4])	GTP Km of T. cruzi GDP-MP, fold higher than reported for L. donovani (T. cruzi GDP-MP enzyme; vs L. donovani GDP-MP) [fold]	GTP Km of T. cruzi GDP-MP, fold higher than reported for L. major (T. cruzi GDP-MP enzyme; vs L. major GDP-MP) [fold]	GTP Km of T. cruzi GDP-MP, fold higher than reported for L. mexicana (T. cruzi GDP-MP enzyme; vs L. mexicana GDP-MP) [fold]
Nc1nc2c(ncn2[C@@H]2O[C@H](COP(=O)(O)OP(=O)(O)OP(=O)(O)O)[C@@H](O)[C@H]2O)c(=O)[nH]1 [GTP]								2.4	27	5.3
CC(C)C(C(=O)O)N1C(=O)C=CC1=O (stereo not drawn) [compound 1]	4.9 (2)	25.1								

More lines, main results first:

pIC50 [1]	IC50 (T. cruzi GDP-MP [2]; [5]) [µM]	pIC50 ± SD [1]	pIC50 ± SD [3]	IC50 (T. cruzi GDP-MP [2]; [6]) [µM]	IC50 (T. cruzi GDP-MP [4]) [µM]	mode of inhibition of GDP-MP (T. cruzi GDP-MP [4])	SMILES	GTP Km of T. cruzi GDP-MP, fold higher than reported for L. donovani (T. cruzi GDP-MP enzyme; vs L. donovani GDP-MP) [fold]	GTP Km of T. cruzi GDP-MP, fold higher than reported for L. major (T. cruzi GDP-MP enzyme; vs L. major GDP-MP) [fold]	GTP Km of T. cruzi GDP-MP, fold higher than reported for L. mexicana (T. cruzi GDP-MP enzyme; vs L. mexicana GDP-MP) [fold]
3.6 (2)	> 1000	3.1 ± 0.2 (3)	3.2 ± 0.2 (3)	> 1000	794	uncompetitive inhibition	c1ccn2c(CNCCCN3CCC3)cnc2c1 [compound 2]			
3.5 (2)	158	3.9 ± 0.2 (3)	3.6 ± 0.1 (3)	126	316	competitive inhibition	CC(=O)OCc1cc(-c2csc(N)n2)ccc1O [compound 3]			
4.0 (2)	158						N[C@H]1CCN(CCCOc2ccc(C(=O)O)cc2)C1 [compound 4]			
